Reference: US20080164212A1, “Method for Determining and Controlling the Formation of Deposits In a Water System” (ASHLAND LICENSING AND INTELLECTUAL PROPERTY LLC., priority 2005, published 2008)

Tested on: total germ count (aerobic bacteria) in wire water of a newsprint paper machine
Test: Total germ count by plating on agar, wire water in a flow cell system dosed daily with biocide
Type: cell-based
Settings: 5 days in a flow cell, 48° C.
Experimental: Furthermore, conventional platings on agar (Plate Count Agar from Merck, Darmstadt, Germany) were also carried out to obtain an indication of the total germ counts.
The aim was to determine the correlation between the results of a conventional biocide screening and the real formation of slime deposits. The investigations were carried on the wire water of a newsprint paper machine using 100% TMP. With a biocide screening, it was possible to determine the optimum biocide concentration for the achievement of a germ count reduction by 10^2 within 30 minutes. In order to follow slime formation at this biocide concentration, a flow cell system with suspended coupons was employed.
The wire water, which was also used for the biocide screening, was poured into the storage bottles of this system and enriched with a number of clots of slime from the wire water channel. The investigation was carried out at system temperature (in this case 48° C.). During the test period of 5 days, biocide was dosed daily. After exposure, the coupons were immediately selectively dyed in order to distinguish between live and dead organisms and then analysed with CLSM. Samples were plated on an agar medium (aerobically) at the same time.

| SMILES | Total germ count (DBNPA 40 ppm product) | Total germ count (peracetic acid 60 ppm product) |
| --- | --- | --- |
| N#CC(Br)(Br)C(N)=O [DBNPA, dibromonitrile propionamide] | < 1000 cfa/ml |  |
| CC(=O)OO [peracetic acid] |  | < 1000 cfu/ml |
